{"source": "paper PMC8329197", "about": "“Compounds targeting OSBPL7 increase ABCA1-dependent cholesterol efflux preserving kidney function in two models of kidney disease” (Nature Communications, 2021)", "key": {"[1]": {"target": "human cannabinoid 1 receptor (hCB1-R) (Homo sapiens, UniProt P21554)", "sequence (P21554 whole entry)": "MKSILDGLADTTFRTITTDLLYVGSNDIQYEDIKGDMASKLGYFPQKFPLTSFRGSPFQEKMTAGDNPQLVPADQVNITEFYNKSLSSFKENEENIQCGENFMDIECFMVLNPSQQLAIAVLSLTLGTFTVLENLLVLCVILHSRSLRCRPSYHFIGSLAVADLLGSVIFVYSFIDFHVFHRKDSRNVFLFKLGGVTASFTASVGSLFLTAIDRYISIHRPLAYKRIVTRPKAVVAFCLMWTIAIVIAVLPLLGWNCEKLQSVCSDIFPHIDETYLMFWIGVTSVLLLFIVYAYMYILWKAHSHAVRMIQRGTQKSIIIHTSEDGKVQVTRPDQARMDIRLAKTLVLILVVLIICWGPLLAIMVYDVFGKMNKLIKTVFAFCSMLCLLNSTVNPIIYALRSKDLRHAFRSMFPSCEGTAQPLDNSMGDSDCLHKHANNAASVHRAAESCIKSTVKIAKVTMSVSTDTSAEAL", "assay": "Potency for binding to the CB1R in vitro (Ki)", "settings": "human CB1 receptor binding"}, "Hepatocytes Clint, rat": {"assay": "Hepatocytes Clint, rat", "format": "in vitro ADME"}, "3A4": {"tested_on": "3A4", "assay": "TDI (3A4) time dependent inhibition", "format": "in vitro ADME"}, "[2]": {"tested_on": "Adriamycin (ADR)-induced nephropathy in Balb/c mice", "assay": "ADR nephropathy: immunofluorescence of glomerular ABCA1 and WT1+ podocyte number", "format": "in vivo, mouse", "settings": "for Glomerular ABCA1 mean fluorescence intensity, mean / Number of Podocytes (WT1+ cells in glomeruli), mean / Glomerular ABCA1 mean fluorescence intensity / Number of Podocytes (WT1+ cells in glomeruli): ADR; for Glomerular ABCA1 mean fluorescence intensity, mean / Number of Podocytes (WT1+ cells in glomeruli), mean: group mean; for Glomerular ABCA1 mean fluorescence intensity / Number of Podocytes (WT1+ cells in glomeruli): individual mice", "procedure": "For the detection of ABCA1 expression, 4 μm paraffin kidney cortex sections were deparaffinized and rehydrated. Antigens were retrieved by boiling for 30 min in citrate buffer pH 6.0 (Target Retrieval Solution, Citrate pH 6, Sigma, USA). The sections were permeabilized for 30 min with 0.1% Triton X-100 in TBS. Tissue sections were incubated with 10% goat serum (cat # G9023, Millipore Sigma) and 1% BSA (cat # SP-5050-500, Vector, USA) in TBS-T for 1hr at room temperature to block any non-specific binding. Samples were then incubated overnight at 4 °C with Rat anti-ABCA1 (Novus, 1:200) and Rabbit anti-WT1 (Abcam, 1:200) antibodies in a humidified chamber. After washing extensively, samples were then incubated for 1 h at RT with fluorochrome-conjugated secondary antibodies (Invitrogen, 1:500). Antifade mounting media containing DAPI (Vectashield Plus) was added to the sections before being analyzed.\nImages were acquired using a FluoView FV1000 Confocal Microscope (Olympus) with a ×63 oil objective lens in different planes using a Z-series pattern with a step size of 0.18 μm. During analysis, individual planes were deconvoluted and stacked to produce a maximum projected image using fluview software version 4.3b (Olympus). A minimum of 5 images was captured from 5 different fields per sample. Quantification of ABCA1 glomerular mean fluorescence intensity (MFI) was done using Fiji—ImageJ software."}}, "note": "pKi: −log10 of the molar value. Values joined by “and” are separate entries in the source; they are usually repeats but may differ in a detail not shown here. Equal values may be shown once."}
{"smiles": "O=C(N[C@@H]1CCCC[C@H]1O)c1ccc(OCC(F)(F)F)c(-c2ccc(Cl)c(Cl)c2)n1", "note": "[Cpd A]", "values": [{"measurement": "pKi", "setting": "[1]", "result": "< 5.00"}]}
{"smiles": "O=C(N[C@@H]1CCCC[C@H]1O)c1cnc(OCC(F)(F)F)c(-c2ccc(Cl)c(Cl)c2)c1", "note": "[Cpd G]", "values": [{"measurement": "Hepatocytes Clint (Fh%) (r/h)", "setting": "Hepatocytes Clint, rat", "result": 70, "unit": "%"}, {"measurement": "TDI (3A4) time dependent inhib", "setting": "3A4", "result": "Negative"}, {"measurement": "Glomerular ABCA1 mean fluorescence intensity, mean", "setting": "[2]; 30mg/kg", "result": 13.76}, {"measurement": "Number of Podocytes (WT1+ cells in glomeruli), mean", "setting": "[2]; 30mg/kg", "result": 9.133}, {"measurement": "Glomerular ABCA1 mean fluorescence intensity", "setting": "[2]; 30mg/kg", "result": "13.36 and 14.02 and 13.9"}, {"measurement": "Number of Podocytes (WT1+ cells in glomeruli)", "setting": "[2]; 30mg/kg", "result": "11 and 9.6 and 6.8"}, {"measurement": "Glomerular ABCA1 mean fluorescence intensity, mean", "setting": "[2]; 100mg/kg", "result": 20.2467}, {"measurement": "Number of Podocytes (WT1+ cells in glomeruli), mean", "setting": "[2]; 100mg/kg", "result": 14.8667}, {"measurement": "Glomerular ABCA1 mean fluorescence intensity", "setting": "[2]; 100mg/kg", "result": "19.7 and 21.32 and 19.72"}, {"measurement": "Number of Podocytes (WT1+ cells in glomeruli)", "setting": "[2]; 100mg/kg", "result": "15.4 and 14.2 and 15"}, {"measurement": "ADR-induced glomerular degeneration with podocyte loss and loss of ABCA1 expression", "setting": "[2]; immunofluorescence of renal cortex sections", "result": "prevented"}]}
